From patent publication US20240173419A1, “CDK2 DEGRADERS AND USES THEREOF” (Kymera Therapeutics, Inc., priority 2022, published 2024)

Biological target: T1, CDK2 (Homo sapiens, UniProt P24941)
T1 construct: endogenous in cells; host or cells: MKN1 cells
Test: CDK2 degradation in MKN1 cells (AlphaLISA)
Assay type: cell-based
Conditions: 14 h incubation; for DC50: read-out: CDK2 degradation 14 h: Mean external-Abs DC50
Method in brief: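 DC50 from four-parameter logistic fit of AlphaLISA CDK2 signal, corrected for no-cell wells. Lysates came from MKN1 cells, 2e4 per well, exposed 14 h at 37° C to compound at 0.001 nM-10 μM (1:5 series, 11 doses) in 0.1% DMSO.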

| Structure (SMILES) | CDK2 degradation 14 h: Average Dmax % | DC50 [nM] |
| --- | --- | --- |
| CCc1cnc(Nc2ccc(S(=O)(=O)C3CC4(CCN(CC5CCN(c6cccc7c6n(C)c(=O)n7C6CCC(=O)NC6=O)CC5)CC4)C3)cc2C)nc1C1CCC(C)(O)CC1 (stereo not drawn) [I-514] | D (D (<25%)) | > 1000 |
| Cc1cc(S(=O)(=O)C2CC3(CCN(CC4CCN(c5ccc6c(c5F)n(C)c(=O)n6C5CCC(=O)NC5=O)CC4)CC3)C2)ccc1Nc1ncc(C(F)(F)F)c(C2CCC(O)(C(C)C)CC2)n1 (stereo not drawn) [I-516] | B (B (>50% -75%)) | > 1000 |
| Cc1cc(S(=O)(=O)C2CC3(CCN(CC4CCN(c5ccc6c(c5F)n(C)c(=O)n6C5CCC(=O)NC5=O)CC4)CC3)C2)ccc1Nc1ncc2c(n1)N(C1CCCC1)C(=O)C21CC1 (stereo not drawn) [I-529] | A (A (>75% o)) | < 100 |
| Cc1cc(S(=O)(=O)N2CCC(CN(C)C3CCN(c4cccc5c4n(C)c(=O)n5C4CCC(=O)NC4=O)CC3)CC2)ccc1Nc1ncc2c(n1)N(C1CCCC1)C(=O)C21CC1 (stereo not drawn) [I-536] | A (A (>75% o)) | < 100 |
| Cc1cc(S(=O)(=O)NCCOC2CCC(CN3CCC(c4ccc5c(c4)n(C)c(=O)n5C4CCC(=O)NC4=O)CC3)CC2)ccc1Nc1ncc2c(n1)N(C1CCCC1)C(=O)C21CC1 (stereo not drawn) [I-537] | A (A (>75% o)) | < 100 |
| Cc1cc(S(=O)(=O)C2CC3(CCN(CC4CCN(c5ccc6c(c5F)n(C)c(=O)n6C5CCC(=O)NC5=O)CC4)CC3)C2)ccc1Nc1ncc2c(n1)N(C1CCCC(O)C1)C(=O)C21CC1 (stereo not drawn) [I-609] | A (A (>75% o)) | < 100 |
| Cc1cc(S(=O)(=O)NC2CC(N3CCN(CC4CCN(c5cccc6c5n(C)c(=O)n6C5CCC(=O)NC5=O)CC4)CC3)C2)ccc1Nc1ncc(C(F)(F)F)c(N2CCCC(C)(O)C2)n1 (stereo not drawn) [I-663] | A (A (>75% o)) | < 100 |
| Cc1cc(S(=O)(=O)NC2(C)CC(N3CCN(CC4CCN(c5ccc6c(c5F)n(C)c(=O)n6C5CCC(=O)NC5=O)CC4)CC3)C2)ccc1Nc1ncc(C(F)(F)F)c(N2CCCC(C)(O)C2)n1 (stereo not drawn) [I-666] | A (A (>75% o)) | < 100 |
| Cc1cc(S(=O)(=O)NC2CCC(N3CCN(CC4CN(c5cccc6c5n(C)c(=O)n6C5CCC(=O)NC5=O)C4)CC3)CC2)ccc1Nc1ncc(C(F)(F)F)c(N2CCCC(C)(O)C2)n1 (stereo not drawn) [I-686] | A (A (>75% o)) | < 100 |

Now from value to compound:

| CDK2 degradation 14 h: Average Dmax % | DC50 [nM] | Structure (SMILES) |
| --- | --- | --- |
| A (A (>75% o)) | < 100 | Cc1cc(S(=O)(=O)C2CC3(CCN(CC4CCN(c5ccc6c(c5F)n(C)c(=O)n6C5CCC(=O)NC5=O)CC4)CC3)C2)ccc1Nc1ncc(C(F)(F)F)c(N2CCC(C(C)(C)O)C2)n1 (stereo not drawn) [I-505] |
| B (B (>50% -75%)) | < 100 | Cc1cc(S(=O)(=O)C2CC3(CCN(CC4CCN(c5ccc6c(c5F)n(C)c(=O)n6C5CCC(=O)NC5=O)CC4)CC3)C2)ccc1Nc1ncc(C(F)(F)F)c(N2CCCC(O)(C(F)F)C2)n1 (stereo not drawn) [I-507] |
| A (A (>75% o)) | < 100 | Cc1cc(S(=O)(=O)NCCOC2CCC(CN3CCC(c4ccc5c(c4F)n(C)c(=O)n5C4CCC(=O)NC4=O)CC3)CC2)ccc1Nc1ncc(C(F)(F)F)c(C2CCC(C)(O)CC2)n1 (stereo not drawn) [I-515] |
| A (A (>75% o)) | < 100 | Cc1cc(S(=O)(=O)C2CC3(CCN(CC4CCN(c5ccc6c(c5F)n(C)c(=O)n6C5CCC(=O)NC5=O)CC4)CC3)C2)ccc1Nc1ncc(C(F)(F)F)c(N2CCCC(C)(O)C2)n1 (stereo not drawn) [I-518] |
| B (B (>50% -75%)) | < 100 | Cc1cc(S(=O)(=O)NCCOC2CCC(CN3CCC(c4ccc5c(c4)n(C)c(=O)n5C4CCC(=O)NC4=O)CC3)CC2)ccc1Nc1ncc(C(F)(F)F)c(C2CCC(C)(O)CC2)n1 (stereo not drawn) [I-519] |
| A (A (>75% o)) | < 100 | Cc1cc(S(=O)(=O)C2CC3(CCN(CC4CCN(c5ccc6c(c5F)n(C)c(=O)n6C5CCC(=O)NC5=O)CC4)CC3)C2)ccc1Nc1ncc2c(n1)N(C1CCCC1)C(=O)C2(C)C (stereo not drawn) [I-524] |
